According to patent US10821160B2, “L-asparaginase variants and fusion proteins with reduced L-glutaminase activity and enhanced stability” (priority 2016, dated 2020):
Where “and” joins values, the source holds several entries; their conditions need not be identical. Identical values can stand only once.

Assays:
[1] = test system: Erwinia chrysanthemi L-asparaginase (ErA) variants ErA-E63Q, ErA-DM2 (A31I-E63Q) and ErA-DM1 (E63Q-S254N); experiment: L-glutaminase activity of the mutants as a group vs ErA-WT; type: biochemical
Protocol: (§1) A conventional assay for determining L-glutaminase activity (Gella & Pascual (1982) Anal. Biochem. 127:322-5) was used with some modifications. The purified enzyme was mixed into a solution containing 50 mM Tris-HCl pH 8.5, 1 mg/mL BSA, 7 U GDH (Glutamate dehydrogenase, Sigma-Aldrich), 3 mM INT (Iodonitrotetrazolium chloride, Sigma-Aldrich), 100 mM PMS (Phenazine methosulfate, Sigma-Aldrich), and 100 mM NAD+. […] The latter, in the presence of NAD+ and under the catalysis of GDH, is broken further into α-ketoglutarate and ammonia. NADH produced by this second reaction, together with INT serve as inputs to the third reaction, where the formation of INT-formazan under the catalysis of PMS can be followed spectrophotometrically as an increase in absorbance at 500 nm. All reactions were carried out at 37° C. 1 IU of enzyme is defined as the amount of enzyme used to produce 1 μmole of product in 1 minute at 37° C.
(§2) Using colorimetric enzyme-coupled assays, L-asparaginase and L-glutaminase activity of the enzymes was determined.

[2] = target: Erwinia chrysanthemi L-asparaginase (ErA) variant A31I-E63Q-S254Q (ErA-TM2), SEQ ID NO:6 (Dickeya chrysanthemi, UniProt P06608, A52I/E84Q/S275Q)
Protocol: as §1

[3] = target: T1, Escherichia coli L-asparaginase, wild type (EcA-WT), SEQ ID NO:9 (Escherichia coli, UniProt P00805); experiment: L-glutaminase activity, GDH/INT coupled assay; type: biochemical
T1 sequence (P00805 with tags, fused parts or gaps): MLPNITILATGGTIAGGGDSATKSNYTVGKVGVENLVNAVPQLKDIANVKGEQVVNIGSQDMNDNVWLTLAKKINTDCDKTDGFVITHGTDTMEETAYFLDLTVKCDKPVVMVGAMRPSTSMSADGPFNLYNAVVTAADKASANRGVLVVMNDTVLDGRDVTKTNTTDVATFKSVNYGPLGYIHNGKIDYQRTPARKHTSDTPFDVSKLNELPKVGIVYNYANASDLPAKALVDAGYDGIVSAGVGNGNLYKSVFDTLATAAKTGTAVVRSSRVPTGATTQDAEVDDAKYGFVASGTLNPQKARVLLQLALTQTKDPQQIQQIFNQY
Protocol: as §1

[4] = target: T2, Erwinia chrysanthemi L-asparaginase (ErA) variant A31I-E63Q-S254N (ErA-TM1), SEQ ID NO:7 (Dickeya chrysanthemi, UniProt P06608, A52I/E84Q/S275N); type: biochemical
T2 construct: lacking the first 21-amino acid residue signal peptide; His6-SUMO (yeast Smt3p) (N, cleaved yes); made in house; host or cells: E. coli BL21(DE3) C41
Protocol: as §1

[5] = target: T3, Erwinia chrysanthemi L-asparaginase, wild type (ErA-WT), SEQ ID NO:1 (Dickeya chrysanthemi, UniProt P06608); experiment: L-glutaminase activity, GDH/INT coupled assay; type: biochemical
T3 construct: lacking the first 21-amino acid residue signal peptide; His6-SUMO (yeast Smt3p) (N, cleaved yes); made in house; host or cells: E. coli BL21(DE3) C41
Protocol: as §1, §2

[6] = target: T4, Erwinia chrysanthemi L-asparaginase (ErA) variant E63Q-S254Q (ErA-DM3), SEQ ID NO:5 (Dickeya chrysanthemi, UniProt P06608, E84Q/S275N); experiment: L-glutaminase activity, GDH/INT coupled assay; type: biochemical; settings: Gln, head prints 50 mM
T4 construct: lacking the first 21-amino acid residue signal peptide; His6-SUMO (yeast Smt3p) (N, cleaved yes); made in house; host or cells: E. coli BL21(DE3) C41
Protocol: as §1, §2

[7] = target: T5, Erwinia chrysanthemi L-asparaginase (ErA) variant E63Q-S254Q (ErA-DM3), SEQ ID NO:5 (Dickeya chrysanthemi, UniProt P06608, E84Q/S275Q); experiment: L-glutaminase activity, GDH/INT coupled assay; type: biochemical
T5 construct: lacking the first 21-amino acid residue signal peptide; His6-SUMO (yeast Smt3p) (N, cleaved yes); made in house; host or cells: E. coli BL21(DE3) C41
Protocol: as §1, §2

[8] = test system: Erwinia chrysanthemi L-asparaginase (ErA) variant E63Q-S254Q (ErA-DM3), SEQ ID NO:5; experiment: L-glutaminase activity, GDH/INT coupled assay; type: biochemical; settings: Gln, 37° C
Protocol: as §1, §2

[9] = target: Erwinia chrysanthemi L-asparaginase (ErA) variant E63Q (ErA-E63Q), SEQ ID NO:2 (Dickeya chrysanthemi, UniProt P06608, E84Q); type: biochemical; set-up: lacking the first 21-amino acid residue signal peptide; His6-SUMO (yeast Smt3p) (N, cleaved yes); made in house; host or cells: E. coli BL21(DE3) C41
Protocol: as §1, §2

[10] = target: T6, Erwinia chrysanthemi L-asparaginase (ErA) variant E63Q-S254N (ErA-DM1), SEQ ID NO:3 (Dickeya chrysanthemi, UniProt P06608, E84Q/S275N); type: biochemical
T6 construct: lacking the first 21-amino acid residue signal peptide; His6-SUMO (yeast Smt3p) (N, cleaved yes); made in house; host or cells: E. coli BL21(DE3) C41
Protocol: as §1, §2

[11] = target: T7, Erwinia chrysanthemi L-asparaginase (ErA) variant A31I-E63Q (ErA-DM2), SEQ ID NO:4 (Dickeya chrysanthemi, UniProt P06608, A52I/E84Q); type: biochemical
T7 construct: lacking the first 21-amino acid residue signal peptide; His6-SUMO (yeast Smt3p) (N, cleaved yes); made in house; host or cells: E. coli BL21(DE3) C41
Protocol: as §1, §2

NC(=O)C[C@H](N)C(=O)O [12] = experiment: purified protein, by the assay type; type: biochemical, Erwinia chrysanthemi; settings: other: Asn, 37° C
Protocol: (§3) L-asparaginase activity was determined using a continuous spectroscopic enzyme-coupled assay as previously described (Schalk, et al. (2014) J. Biol. Chem. 289:33175-33186). In brief, the assay measures the production of L-aspartate through the 1:1 oxidation of reduced NADH. The conversion of NADH to NAD^+ was measured spectrophotometrically as a decrease in absorbance at 340 nm at 37° C. All measurements were taken in triplicate. Rates were fit to the Michaelis-Menten equation using SIGMAPLOT software (Systat Software Inc).
Using colorimetric enzyme-coupled assays, L-asparaginase and L-glutaminase activity of the enzymes was determined. […] Seventeen of the 18 mutants had reduced L-glutaminase activity (Table 7). However, for most of the mutants, this decrease was concomitant with a decline in the L-asparaginase activity. Using the criteria of (i) ≥60% retained L-asparaginase activity (relative to Erw-WT) and (ii) ≤5% L-glutaminase versus and L-asparaginase activity, mutants ErA-E63Q, ErA-S254P, ErA-A31I+E63Q and ErA-S254N+E63Q were selected for further study.

NC(=O)CC[C@H](N)C(=O)O = experiment: purified protein, by the assay type; settings: other: Gln, 37° C, pH 8.5
NC(=O)C[C@H](N)C(=O)O [13] = experiment: purified protein, by the assay type; settings: other: Asn, 37° C
NC(=O)C[C@H](N)C(=O)O [14] = experiment: purified protein, by the assay type; type: biochemical, Erwinia chrysanthemi; settings: other: Asn, 37° C; remark: listed apart in the source
[15] = substrate: NC(=O)C[C@H](N)C(=O)O; experiment: L-asparaginase activity, continuous spectroscopic enzyme-coupled assay; type: biochemical, Escherichia coli; settings: other: Asn, 37° C
Protocol: as §3
The parameters that define the asparagine-depleting power of such enzyme drugs are of significance. […] Enzymologists often combine these two parameters into a single value (kcat/Km) that is thought to represent the efficiency of the enzyme. […] Therefore, the ErA enzyme was selected for developing a variant with low L-glutaminase activity.

[16] = substrate: NC(=O)CC[C@H](N)C(=O)O; experiment: L-glutaminase activity, GDH/INT coupled assay; type: biochemical, Escherichia coli; settings: other: Gln, 37° C, pH 8.5
Protocol: as §1

NC(=O)CC[C@H](N)C(=O)O [Gln, L-glutamine]
observed L-glutaminase rate reduced by ([1]; 0.5 mM Gln, relative to ErA-WT): 95-99%
L-glutaminase efficiency (kcat/Km) reduced by ([1]; Gln, vs ErA-WT): 20-400 fold
increased Km (fold higher compared ErA-WT) ([1]; Gln, vs ErA-WT): 8-44 fold
reduced kcat (fold lower compared ErA-WT) ([1]; Gln, vs ErA-WT): 3-9 fold
kobs @100 μM ([2]; 100 μM Gln): 0.0045 s⁻¹
kobs @0.5 mM ([2]; 0.5 mM Gln): 0.0083 s⁻¹
kobs @500 μM ([2]; 500 μM Gln): 0.0083 s⁻¹
Km ([2]; Gln, 37° C): 47.5 mM
kcat ([2]; Gln, 37° C): 1.836 ± 0.11 s⁻¹
kcat/Km ([2]; Gln, 37° C): 0.04 × 10^−3 sec^−1μM^−1
kobs @100 μM ([3]; 100 μM Gln): 0.047 s⁻¹
kobs @0.5 mM ([3]; 0.5 mM Gln): 0.22 s⁻¹
kobs @500 μM ([3]; 500 μM Gln): 0.22 s⁻¹
kobs @1 mM ([3]; 1 mM Gln): 0.36 s⁻¹
kobs @ 50 mM ([3]; Gln): 0.22 s⁻¹
kcat/Km ([3]; Gln, 37° C): 0.64 × 10^−3 sec^−1μM^−1
kobs @0.5 mM ([4]; 0.5 mM Gln): 0.11 s⁻¹
kobs @1 mM ([4]; 1 mM Gln): 0.33 s⁻¹
Km ([4]; Gln, 37° C): 28.2 mM
kcat ([4]; Gln, 37° C): 5.6 ± 0.2 s⁻¹
kcat/Km ([4]; Gln, 37° C): 0.19 × 10^−3 sec^−1μM^−1
kobs @100 μM ([5]; 100 μM Gln): 6.118 s⁻¹
kobs @0.5 mM ([5]; 0.5 mM Gln): 15.87 s⁻¹
kobs @500 μM ([5]; 500 μM Gln): 15.06 s⁻¹
kobs @1 mM ([5]; 1 mM Gln): 19.22 s⁻¹
kcat/Km ([5]; Gln, 37° C): 74.56 × 10^−3 sec^−1μM^−1
kobs @ 50 mM ([5]; Gln, head prints 50 mM): 15.87 s⁻¹
kobs @ 50 mM [6]: 0.11 s⁻¹
kobs @100 μM ([7]; 100 μM Gln): 0.009 s⁻¹
kobs @0.5 mM ([7]; 0.5 mM Gln): 0.0226 s⁻¹
kobs @500 μM ([7]; 500 μM Gln): 0.02 s⁻¹
kobs @1 mM ([7]; 1 mM Gln): 0.19 s⁻¹
Km [8]: 84 mM
kobs @100 μM ([9]; 100 μM Gln): 0.098 s⁻¹
kobs @0.5 mM ([9]; 0.5 mM Gln): 0.74 s⁻¹
kobs @500 μM ([9]; 500 μM Gln): 0.72 s⁻¹
kobs @1 mM ([9]; 1 mM Gln): 2.16 s⁻¹
Km ([9]; Gln, 37° C): 3.86 ± 0.23 mM
kcat ([9]; Gln, 37° C): 8.33 ± 0.16 s⁻¹
kcat/Km ([9]; Gln, 37° C): 3.68 sec^−1mM^−1 and 3.68 × 10^−3 sec^−1μM^−1
kobs @100 μM ([10]; 100 μM Gln): 0.019 s⁻¹
kobs @0.5 mM ([10]; 0.5 mM Gln): 0.11 s⁻¹
kobs @500 μM ([10]; 500 μM Gln): 0.07 s⁻¹
kobs @1 mM ([10]; 1 mM Gln): 0.18 s⁻¹
Km ([10]; Gln, 37° C): 15.8 ± 0.3 mM
kcat ([10]; Gln, 37° C): 2.93 ± 0.03 s⁻¹
kcat/Km ([10]; Gln, 37° C): 0.19 × 10^−3 sec^−1μM^−1
kobs @100 μM ([11]; 100 μM Gln): 0.105 s⁻¹
kobs @0.5 mM ([11]; 0.5 mM Gln): 0.83 s⁻¹
kobs @500 μM ([11]; 500 μM Gln): 0.73 s⁻¹
kobs @1 mM ([11]; 1 mM Gln): 2.20 s⁻¹
Km ([11]; Gln, 37° C): 2.73 ± 0.02 mM
kcat ([11]; Gln, 37° C): 6.01 ± 0.13 s⁻¹
kcat/Km ([11]; Gln, 37° C): 2.2 × 10^−3 sec^−1μM^−1

Erwinia chrysanthemi L-asparaginase (ErA) variant A31I-E63Q (ErA-DM2), SEQ ID NO:4 (Dickeya chrysanthemi; A52I/E84Q)
Km (NC(=O)C[C@H](N)C(=O)O [12]): 0.037 mM

Erwinia chrysanthemi L-asparaginase (ErA) variant A31I-E63Q-S254Q (ErA-TM2), SEQ ID NO:6 (Dickeya chrysanthemi; A52I/E84Q/S275Q)
Km (NC(=O)CC[C@H](N)C(=O)O): 47.5 ± 0.7 mM

Erwinia chrysanthemi L-asparaginase (ErA) variant E63Q (ErA-E63Q), SEQ ID NO:2 (Dickeya chrysanthemi; E84Q)
Km (NC(=O)C[C@H](N)C(=O)O [13]): 0.051 mM

Erwinia chrysanthemi L-asparaginase (ErA) variant E63Q-S254N (ErA-DM1), SEQ ID NO:3 (Dickeya chrysanthemi; E84Q/S275N)
Km (NC(=O)C[C@H](N)C(=O)O [14]): 0.185 mM

B1: Escherichia coli L-asparaginase, wild type (EcA-WT), SEQ ID NO:9 (Escherichia coli K-12) (protein)
chain: MLPNITILATGGTIAGGGDSATKSNYTVGKVGVENLVNAVPQLKDIANVKGEQVVNIGSQDMNDNVWLTLAKKINTDCDKTDGFVITHGTDTMEETAYFLDLTVKCDKPVVMVGAMRPSTSMSADGPFNLYNAVVTAADKASANRGVLVVMNDTVLDGRDVTKTNTTDVATFKSVNYGPLGYIHNGKIDYQRTPARKHTSDTPFDVSKLNELPKVGIVYNYANASDLPAKALVDAGYDGIVSAGVGNGNLYKSVFDTLATAAKTGTAVVRSSRVPTGATTQDAEVDDAKYGFVASGTLNPQKARVLLQLALTQTKDPQQIQQIFNQY
Km [15]: 0.015 ± 0.0005 mM
kcat [15]: 44.4 ± 0.3 s⁻¹
kcat/Km [15]: 2.96e+06 M⁻¹ s⁻¹
Km [16]: 1.38 ± 0.09 mM
kcat [16]: 0.89 ± 0.01 s⁻¹
kcat/Km [16]: 640 M⁻¹ s⁻¹
